Data reported in publication PMC10283052, “Intranasal delivery of mitochondrial protein humanin rescues cell death and promotes mitochondrial function in Parkinson's disease” (Theranostics, 2023).

Tests used:
SH-SY5Y cells [1] = test: HN-induced intracellular humanin expression, western blot, SH-SY5Y; type: cell-based, human; settings: HN treatment 24 h, several doses, basal humanin undetectable
Procedure: The SH-SY5Y human neuroblastoma cell line and PC12 rat pheochromocytoma cell line were purchased from the Korean Cell Line Bank (Seoul, South Korea). Undifferentiated SH-SY5Y cells were grown in Dulbecco's modified Eagle's medium nutrient mixture F-12 (DMEM/F12; Thermo Fisher Scientific) supplemented with 10% FBS and 1% P/S. Undifferentiated PC12 cells were grown in DMEM (Thermo Fisher Scientific) supplemented with 5% FBS, 5% horse serum, and 1% P/S on poly-D-lysine (PDL, Sigma-Aldrich) plates.
For HN treatment of cells, HN stock solution was first incubated at 37 ℃ with mild stirring for 0.5 h. The solution was then added to the culture medium to achieve a desirable final concentration as described above.
Mouse brain tissue samples and cells were homogenized in radioimmunoprecipitation assay (RIPA) buffer (Cell Signaling, Danvers, MA, USA) in the presence of a protease and phosphatase inhibitor cocktail (Thermo Fisher Scientific). The samples were sonicated on ice, and the supernatant was collected after centrifugation at 4°C at 10,000 g for 5 min. The protein samples were loaded and separated using Tris-glycine SDS-PAGE. To detect the HN peptide, the proteins were separated into three layers of tricine SDS-PAGE, as previously described. […] The results were analyzed using the ImageJ densitometry system. […]

SH-SY5Y cells [2] = test: Mitochondrial mass and network morphology, MitoTracker Green; type: cell-based, human; settings: HN 20 μM, 24 h
Procedure: For staining, the cells were seeded on PDL-coated glass slides and treated as indicated above. The samples were fixed using methanol and permeabilized using 0.1% Triton X-100 in PBS. After blocking with 5% bovine serum albumin (BSA), the cells were incubated with the appropriate primary antibody [anti-HN (1:500, Cat no # RA19000, Neuromics, Edina, MN, USA), anti-TH (1:500, Cat no # P40101, Pel-Freez Biologicals, Rogers, AR, USA), anti-lectin (1:200, Cat no # L32482, Thermo Fisher Scientific), anti-α-SMA (1:500, Cat no # ab5694, Abcam, Cambridge, MA, USA), and anti-GFAP (1:200, Cat no # sc-33673, Santa Cruz, Santa Cruz, USA)]. After incubation, the samples were washed and incubated with Alexa Fluor 594- or 488-conjugated antibodies (Thermo Fisher Scientific). The nuclei were stained using Hoechst 33342 (Sigma-Aldrich) and mounted using an anti-fade solution (Thermo Fisher Scientific). Fluorescent images were captured at the Neuroscience Translational Research Solution Center (Busan, South Korea) using an LSM 700 confocal microscope (Zeiss, Jena, Germany). The mitochondrial network morphology was assessed using the FIJI/ImageJ software as described previously.

humanin (MAPRGFSCLLLLTSEIDLPVKRRA; Humanin; UniProt Q8IVG9 1-24, looked up) [HN, mitochondria-derived peptide encoded by the mitochondrial genome, synthesized by Fmoc-based SPPS at GL Biochem]
intracellular humanin expression (SH-SY5Y cells [1]): induced its intracellular expression in a dose-dependent manner
mitochondrial branch length (SH-SY5Y cells [2]; versus DMSO): longer rods and branches of mitochondria
mitochondrial volume (SH-SY5Y cells [2]; versus DMSO): increase in mitochondrial volume
number of branches per mitochondrial network (SH-SY5Y cells [2]; versus DMSO): increase
mitochondrial mass (SH-SY5Y cells [2]; MitoTracker Green): increased mitochondrial mass
